How the values were obtained:
Type in all cases: cell-based, human
[1] = system: NCI-N87 cells; assay: Apoptosis assay (Caspase-Glo 3/7); conditions: 24 h treatment
Description: The apoptosis was assessed by measuring the activity of caspases 3/7 in gastric cancer NCI-N87 cells using the Caspase-Glo®3/7 Assay system. A xenograft human gastric cancer NCI-N87 model and a human gastric cancer PDX model were treated with the antibodies at given doses. All data are presented as mean±SEM. The p values were calculated using Student's t test. ** denotes p<0.01, and * denotes p<0.05.
The apoptosis was assessed by measuring the activity of caspases 3/7 in NCI-N87 cells using the Caspase-Glo®3/7 Assay (G8093, Promega) system. The cells were seeded in a 96-well plate (CLS3799, Corning) at about 1.5×10^4 cells/well and incubated overnight. The original medium was replaced with a drug-containing culture medium of 100 μL, and the cells were treated for 24 h. After an incubation at room temperature for 30 min, 100 μL of Caspase-Glo 3/7 reagent was added. The plate was incubated in the dark for 30 min and detected using Spark (Tecan, Switzerland) after gentle shaking.

[2] = system: gastric cancer cells NCI-N87; assay: HER2 internalization (endocytosis) assay, pHrodo Green staining, flow cytometry; conditions: 10 μg/mL
Description: (§1) A HER2 internalization assay was performed using pHrodoiFL Green STP ester amine reactive dye (P35369, Invitrogen). […] After a short wash with a wash buffer to remove unbound antibodies, one group of cells was placed on ice for freezing to stop internalization, and the remaining cells were placed in a 37° C. incubator for further incubation. After the co-incubation with the antibody, the cells were fixed with a fixation buffer (420801, Biolegend) for 30 min. Finally, all stained cells were washed with a staining buffer and analyzed on the CytoFLEX LX flow cytometer (Beckman Coulter, USA).

[3] = system: gastric cancer cells SNU216; assay: as above; conditions: 10 μg/mL
Description: as §1

pertuzumab: antibody comprising heavy chain SEQ ID NO: 13 and light chain SEQ ID NO: 14 [reference compound]
apoptosis (caspases 3/7 activity) [1]: did not significantly induce the apoptosis of NCI-N87 cells
HER2 internalization (endocytosis) [2]: weak endocytosis
HER2 internalization (endocytosis) [3]: weak endocytosis

— patent US20260167742A1, “METHOD FOR TREATING GASTRIC CANCER BY COMBINING ANTI-HER2 ANTIBODY AND CHEMOTHERAPEUTIC AGENT, AND USE” (SHANGHAI HENLIUS BIOTECH, INC., priority 2023, published 2026)
